Test results taken from patent US8455448B2, “Myostatin isoform” (Myostin Therapeutics Pty Ltd, priority 2004, dated 2013).
Where no end group is shown, it is not given here.

Experiments:
[1] = tested on: human skeletal muscle myoblasts; assay: Proliferation assay of human primary myoblasts (methylene blue); type: cell-based
Protocol: (§1) Human skeletal muscle myoblasts (Cambrex, Australia) were seeded in 96-well tissue culture plates (Nunc, Roskilde, Denmark) at a cell density of 2000 cells per well in 200 μl of Skeletal Muscle Basal Medium (Cambrex, Australia) supplemented with foetal bovine serum (FBS, 10% v/v, Cambrex, Australia), and incubated overnight at 37° C. with 5% CO2. The medium was replaced with Dulbecco's modified Eagle's medium (DMEM, Invitrogen, California) supplemented with 5% foetal bovine serum (FBS, Invitrogen, California), penicillin (1×10^5 IU/l, Sigma, St Louis, Mo., USA) and streptomycin (100 mg/l, Sigma) buffered with NaHCO3 containing phenol red (7.22 nmol/l) as a pH indicator with 0, 0.1, 1, 5 and 10 μg/ml rhMSV38 or roMSV47 protein in a semi-random arrangement of eight replicates (n=8) for each test medium. Plates were incubated at 37° C. with 5% CO2 for 96 hours, and then the medium was removed. The wells were washed with 200 μl of phosphate buffered saline (PBS, Oxoid, UK) buffer and fixed with 100 μl of 10% formaldehyde, 0.9% NaCl solution for at least one hour. The fixative was then removed and 100 μl of 1% methylene blue stain in 0.01 M borate buffer (pH 8.5) was added to each well and incubated for 30 min at room temperature. Excess stain was removed by four sequential washes in borate buffer. Methylene blue was eluted from the cells by the addition of 100 μl 1:1 (v/v) ethanol/0.1 HCl. The plates were gently shaken and the absorbance was measured at 655 nm using a microplate photometer (VersaMax, Molecular Devices, CA).
Human skeletal muscle myoblasts (Cambrex, Australia) were seeded in 96-well tissue culture plates (Nunc, Roskilde, Denmark) at a cell density of 2000 cells per well in 200 μl of Skeletal Muscle Basal Medium (Cambrex, Australia) supplemented with foetal bovine serum (FBS, 10% v/v, Cambrex, Australia), and incubated overnight at 37° C. with 5% CO2. The medium was replaced with Dulbecco's modified Eagle's medium (DMEM, Invitrogen, California) supplemented with 5% foetal bovine serum (FBS, Invitrogen, California), penicillin (1×10^5 IU/l, Sigma, St Louis, Mo., USA) and streptomycin (100 mg/l, Sigma) buffered with NaHCO3 containing phenol red (7.22 nmol/l) as a pH indicator with no added protein, 1.5 or 3.0 μg/ml recombinant bovine mature myostatin alone and with combination of 0.3, 1, 3, 10 molar ratio of rhMSV38 to myostatin, and the same amounts of rhMSV38 without myostatin in a semi-random arrangement of eight replicates (n=8) for each test medium. Plates were incubated at 37° C. with 5% CO2 for 48 hours, and then the medium was removed. […] The plates were gently shaken and the absorbance was measured at 655 nm using a microplate photometer (VersaMax, Molecular Devices, CA).

[2] = tested on: murine C2C12 myoblasts; assay: Proliferation assay of C2C12 murine myoblasts (methylene blue, absorbance 655 nm); type: cell-based
Protocol: (§2) Myoblasts were seeded in 96-well tissue culture plates (Nunc, Roskilde, Denmark) at a cell density of 1000 cells per well in 200 μl of Dulbecco's modified Eagle's medium (DMEM, Invitrogen, California) supplemented with foetal bovine serum (FBS, 10% v/v, Invitrogen), penicillin (1×10^5 IU/l, Sigma, St Louis, Mo., USA) and streptomycin (100 mg/l, Sigma) buffered with NaHCO3 containing phenol red (7.22 nmol/l) as a pH indicator, and incubated overnight at 37° C. with 5% CO2. Medium was replaced with DMEM 10% FBS test medium containing 0, 0.001, 0.003, 0.01, 0.03, 0.1, 0.3, 1, 3 or 10 μg/ml oMSV65 in a semi-random arrangement of eight replicates (n=8) for each test medium. Plates were incubated at 37° C. with 5% CO2 for 72 hours, and then the medium was removed. The wells were washed with 200 μl of phosphate buffered saline (PBS, Oxoid, UK) and fixed with 100 μl of 10% formaldehyde, 0.9% NaCl solution for at least one hour. The fixative was then removed and 100 μl of 1% methylene blue stain in 0.01 M borate buffer (pH 8.5) was added to each well and incubated for 30 min at room temperature. Excess stain was removed by four sequential washes in borate buffer. Methylene blue was eluted from the cells by the addition of 100 μl 1:1 (v/v) ethanol/0.1 HCl. The plates were gently shaken and the absorbance was measured at 655 nm using a microplate photometer (FIGS. 3a and 3b).
as §2, with “0,” for “0, 0.001, 0.003,”, “0.01,” for “0.01, 0.03,”, “1” for “0.3, 1, 3”, “oMSV47” for “oMSV65”, “60” for “72”, “(FIG. 9).” for “(FIGS. 3a and 3b).”
Myoblasts were seeded in 96-well tissue culture plates (Nunc, Roskilde, Denmark) at a cell density of 1000 cells per well in […] of Dulbecco's modified Eagle's medium (DMEM, Invitrogen, California) supplemented with foetal bovine serum (FBS, 10% v/v, Invitrogen), penicillin (1×10^5 IU/l, Sigma, St Louis, Mo., USA) and streptomycin (100 mg/l, Sigma) buffered with NaHCO3 containing phenol red (7.22 nmol/l) as a pH indicator, and incubated overnight at 37° C. with 5% CO2. Medium was replaced with DMEM 2.5% FBS test medium containing 0, 0.01, 0.1, 1, 5 or 10 μg/ml of the respective peptides in a semi-random arrangement of eight replicates (n=8) for each test medium. Plates were incubated at 37° C. with 5% CO2 for 80 hours, and then the medium was removed. The wells were washed with 200 μl of phosphate buffered saline (PBS, Oxoid, UK) and fixed with 100 μl of 10% formaldehyde, 0.9% NaCl solution for at least one hour. The fixative was then removed and 100 μl of 1% methylene blue stain in 0.01 M borate buffer (pH 8.5) was added to each well and incubated for 30 min at room temperature. Excess stain was removed by four sequential washes in borate buffer. Methylene blue was eluted from the cells by the addition of 100 μl 1:1 (v/v) ethanol/0.1 HCl. […]

[3] = target: T1, myostatin (Bos taurus, UniProt O18836); assay: rhMSV38/mature myostatin competition in human primary myoblast proliferation assay; type: cell-based, bovine; conditions: FIG. 13
T1 sequence (O18836 267-375): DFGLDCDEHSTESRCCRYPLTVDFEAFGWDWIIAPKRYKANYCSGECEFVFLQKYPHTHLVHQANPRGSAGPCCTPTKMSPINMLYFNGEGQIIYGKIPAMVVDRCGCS
Protocol: as §1, with “with no added protein, 1.5 or 3.0 μg/ml recombinant bovine mature myostatin alone and with combination of 0.3,” for “with 0, 0.1,”, “1, 3, 10 molar ratio of rhMSV38 to myostatin,” for “1, 5”, “and the same amounts of” for “and 10 μg/ml”, “rhMSV38 without myostatin” for “rhMSV38 or roMSV47 protein”, “for 48” for “for 96”

Substance	proliferation of human myoblasts under myostatin ([1]; 1.5 or 3 μg/ml Mstn, 48 h, FIG. 13)	myoblast proliferation under myostatin ([2]; 1.5 μg/ml myostatin, C2C12, FIG. 9)	overcoming the inhibitory effect of myostatin on proliferation of human myoblasts ([3]; 1.5 μg/ml Mstn, 48 h)	antagonism of myostatin, proliferation relative to controls ([3]; 1:10 molar ratio of myostatin to rhMSV38, 48 h)	molar ratio rhMSV38:myostatin at which restoration was achieved ([3]; double the concentration of myostatin (3 μg/ml Mstn), 48 h) [× molar ratio]	proliferation of human myoblasts ([1]; 0-10 μg/ml, 96 h, FIG. 12B)	proliferation of human primary myoblasts ([1]; rhMSV38 without myostatin, 48 h, FIG. 13)	proliferation of murine C2C12 myoblasts ([2]; 0-10 μg/ml, DMEM 2.5% FBS, 80 h, FIG. 12A and FIG. 17)
myostatin: recombinant bovine mature myostatin, negative regulator of muscle growth [reference compound]	inhibitory effect	inhibited myoblast proliferation						
rhMSV38: recombinant human MSV38 expressed in E. coli (VHFPTPPNEEWIFFNVRRIIFLEVGFQFCSILGETALS; not fully specified)			able to overcome the inhibitory effect of myostatin	increases proliferation beyond that of controls	1	stimulate myoblast proliferation	stimulate proliferation of human primary myoblasts in a dose dependent manner	stimulate myoblast proliferation
